Molecules are shown by their SMILES.

Turning to `NCCCCCCCCOc1cccc2ccccc12`, the melting point lay within 90.5 to 92 °C.

Regarding `CCOC(Oc1cc(Cl)cc(Cl)c1)C(=O)O` (centres undefined), the melting point lay in the range of 83.5 to 86.5 °C.

Take `Cc1ccc2c(c1)C1(OCCO1)C1(CCC(=O)CC1)C2`: the melting point lay in the range of 116 to 118 °C.

Turning to `O=[N+]([O-])c1cccc(-c2ccc3[nH]c(=S)n(Cc4ccccc4)c3c2)c1`, the melting point was 244 to 245 °C.

`Cc1nc(-c2ccc3c(=O)n(CC(C)C)c(CNC(=O)OC(C)(C)C)c(-c4ccccc4)c3c2)sc1C#N` displayed a melting point of 209 to 211 °C.

For `Cc1cc(F)c([N+](=O)[O-])cc1[N+](=O)[O-]`, the melting point was found to be 76 °C.

The molecule `O=C(NCc1ccc(Cl)cc1)c1cn2c3c(cc(CN4CCOCC4)cc3c1=O)OC(c1ccco1)C2` (centres undefined) yielded a melting point of 220 to 222 °C.

As for `COC(=O)C(C)N(C(=O)CF)c1c(C)cccc1Cl` (centres undefined), the melting point fell in the range of 101 to 103 °C.

`O=C1CC[N+]([O-])=C(c2ccccc2Cl)c2cc(Cl)ccc21` came in with a melting point of 184 to 187 °C.

`CCCCc1nc2cnccc2n1Cc1ccc(C(=O)O)cc1` registered a melting point of 210 °C.

In the case of `CC(=O)c1cc2c(cc1C=O)C(C)(C)CCC2(C)C`, the melting point came out at 116 °C.

As to `O=C(Cl)N(OCc1ccccc1)C1c2ccccc2Oc2ccccc21`, the melting point amounted to 117 °C.

`Cc1c(Cl)cccc1NC(=O)Nc1ccc(-n2nc(C(F)(F)F)cc2C(F)(F)F)cc1` showed a melting point of 193 to 196 °C.

On to `N=C(N)SCc1c(Cl)ccc2c1oc1c(CSC(=N)N)c(Cl)ccc12`, for which the melting point was greater than 220 °C.

As for `CCOC(=O)C1=C(N)NC(N)=C(C(=O)OCC)C1c1ccc(SC)cc1`, the melting point worked out at 127 °C.

`O=C1c2ccccc2C(=O)c2cc(S(=O)(=O)NCCCN3CCOCC3)ccc21`: the melting point fell in the range of 151 to 156 °C.

In the case of `COc1ccc(CC(=O)c2ccccc2)cc1OC`, the melting point is 80 to 81 °C.

Molecule `CC(=O)c1sc(-c2ccc(-c3ccccc3)cc2)nc1C` returned a melting point of 124 to 125 °C.

Consider `Cc1nc2ccccc2c(N)c1C(C)O` (centres undefined), for which the melting point was 214 °C.

With `CC(C)(C)OC(=O)Nc1ccc(C2=CCN(C(=O)OC(C)(C)C)CC2)cc1[N+](=O)[O-]`, the melting point was 85 to 87 °C.

In the case of `CC1(CO)C(=O)N(c2ccc(C#N)c(C(F)(F)F)c2)C(=O)N1CC#N` (centres undefined), the melting point turned out to be 171 °C.

For `COc1ccc(N2C[C@](C)(COc3ccc(C#N)cc3)OC2=O)cc1`, the melting point was in the range of 147 to 149 °C.

`C=CCn1cccc1C(N)=S` registered a melting point of 80.5 to 83 °C.

In turn, `CC(=O)N[C@@H](CSC(=O)C(C)(C)C)C(=O)NCCSC(=O)C(C)(C)C` registered a melting point of 109 to 111 °C.

On to `CCOC(=O)c1cc2c(nc(C)n2C)c2c1CCC1(Cc3ccccc3C1)N2`, for which the melting point lay within 167 to 168 °C.

For the molecule `CCOC(=O)c1nnnn1Cc1ccccc1`, the melting point fell in the range of 58 to 61 °C.

The molecule `CCOC(=O)c1ccc2nc3sc(C(C)C)cc3c(=O)n2c1` showed a melting point of 122 to 123 °C.

For `O=C(C1CCN(c2ccncn2)CC1)N1CCN(Cc2ccccc2)CC1`, the melting point is 107 to 108 °C.

As to `COc1ccc(C2=NN(C3CCN(C(=O)CN4C(=O)Cc5ccccc54)CC3)C(=O)C2(C)C)cc1OC`, the melting point turned out to be 178 °C.

`CC(=O)Nc1nc(NC(C)=O)nc(NC2CC2)n1`: the melting point was 267 to 269 °C.

With `COC(=O)c1ccc(C#CCc2cccc3c2SCCC3(C)C)cc1`, the melting point was 92 °C.

For `CC(=O)SCC(Cc1ccccc1C)C(=O)O` (centres undefined), the melting point was in the range of 63 to 70 °C.

Molecule `C#CCc1c(C)nc2c(OCc3c(C)cccc3NC(=S)NC(=O)c3ccccc3)cccn12` displayed a melting point of 159 to 160 °C.

Take `Clc1nc(Cl)c2c(n1)CCC2`: the melting point was in the range of 77 to 79 °C.

In turn, `CC(=O)OC1CCN(c2ccc3[nH]c(=O)ccc3c2)CC1` returned a melting point of 245 to 250 °C.

In turn, `O=[PH](c1ccc2c(c1)OCO2)c1ccc2c(c1)OCO2` displayed a melting point of 128 °C.

As to `O=S(=O)(c1ccc(Br)cc1)N1CCC(CN2CCC(c3ccncc3)CC2)CC1`, the melting point is 163 to 164 °C.

On to `Oc1cccc(-c2csc(-c3cccnc3)n2)c1`, for which the melting point is 180 to 181 °C.

Consider `CN(C)c1ccc(C2=NN(S(=O)(=O)c3ccc(I)cc3)CCC2)cc1`, for which the melting point lay within 203 to 205 °C.

`CC(=O)C(=Cc1cc(O)c(O)c(Cl)c1)C(C)=O` showed a melting point of 167 to 171 °C.

For the molecule `CC(C)c1nn(-c2ncc(C(F)(F)F)cc2Cl)cc1CCCO`, the melting point is 66 to 67 °C.

Molecule `CC(C)c1ccc(S(=O)(=O)n2c(CO)cc3cc(C(F)(F)F)ccc32)cc1` had a melting point of 112 °C.

On to `Cc1ccn2nc(S(=O)(=O)Nc3c(Cl)cccc3Cl)nc2c1`, for which the melting point was in the range of 232 to 234 °C.

For `O=C(c1c(F)cccc1F)N1CSCN(c2ccc(Cl)cc2)C1=O`, the melting point is 128 to 130 °C.

`COC(=O)c1cccc2c(I)c(OC)ccc12` yielded a melting point of 98 to 99 °C.

`N#CC(=NO)C(=O)NC(=O)NCCCCCC(N)=O` had a melting point of 187 to 189 °C.

Turning to `O=C(O)CCc1cn(Cc2cccc(C(=O)NCCc3ccccn3)c2)nc1-c1ccccc1`, the melting point was 166 to 167 °C.

As for `CCCCc1nc2c(c(=O)[nH]1)CN(C(C)=O)CC2`, the melting point lay in the range of 106 to 113 °C.

The molecule `Cc1c(C)c(N2CCN(c3ccc(S(C)(=O)=O)cc3)CC2)c(C)c2c1OC(C)C2` (centres undefined) showed a melting point of 228 to 233 °C.

The molecule `CC(C)(Cc1ccccc1)C(NC(=O)c1ccc(Cl)cc1)NC(=NC#N)Nc1cccnc1` (centres undefined) yielded a melting point of 182 to 183 °C.

In turn, `CC1CC2C(=C(Cl)C=CC2(F)n2[nH]c3c(c2=O)CCCC3)O1` (centres undefined) gave a melting point of 240 to 242 °C.

Consider `COc1ccc2c(c1)C(Cl)(C(F)(F)F)OC(=O)N2` (centres undefined), for which the melting point fell in the range of 112 to 114 °C.

`COc1ccc(C(=O)C2CCN(C3CN(C(=O)c4ccccc4)CCC3O)CC2)cc1` (centres undefined) gave a melting point of 114 to 115 °C.

Turning to `CC(Cc1ccc(OCc2cccc(C(=O)O)c2)cc1)NCCC(c1ccccc1)c1ccccc1` (centres undefined), the melting point is 209 to 212 °C.

Take `COc1cc(Br)ccc1C12CC3CC(CC(C3)C1)C2`: the melting point was in the range of 159 to 160 °C.

As to `COc1ccc(-n2nnnc2C)cc1C=O`, the melting point lay within 132 to 134 °C.

`O=C(Nc1ccc2c(c1)CCC2)OCc1ccccc1`: the melting point lay in the range of 56 to 59 °C.

For `CCO[C@@H](Cc1ccc(OCCc2nc(-c3ccc(-c4ccccc4)cc3)oc2C)c2ccccc12)C(=O)O`, the melting point lay within 140 to 145 °C.

In the case of `NC1N=C(c2ccccc2)C=CS1` (centres undefined), the melting point stood at 137 °C.

`O=C(N[C@@H](CO)C(=O)NCCCOC1CCCCC1)c1ccc(C(=O)c2cccnc2)cc1`: the melting point was in the range of 57 to 62 °C.

In turn, `COC(=O)c1ccc(Cc2c[nH]c3ccc(C=O)cc23)c(OC)c1` displayed a melting point of 117 to 120 °C.

`CCCc1c(OCCCOc2cccc3c2CCCC3)ccc2c1OC(CCCC(O)CO)(CCCC(O)CO)CC2=O` (centres undefined) came in with a melting point of 87 to 88 °C.

In turn, `CC(=O)Nc1ccc(C(=O)c2cccnc2)cc1` had a melting point of 215 °C.

With `Clc1ccc(C2CCN(CCCOc3ccc4c(c3)CNCCC4)CC2)cc1`, the melting point is 97 to 99 °C.

As for `O=C(O)c1ccc(NCCCCCCCc2ccccc2)cc1`, the melting point lay within 123 to 126 °C.

In the case of `CC(=O)NC(=CC(C)C)c1ccccc1N1CCCCC1`, the melting point was in the range of 140 to 143 °C.

As for `COC(CNC(=O)c1cccc(C(=O)NCC(OC)OC)c1)OC`, the melting point was 76.5 to 78 °C.

The molecule `CC(C)(C)NC(=O)COc1cc2c(cc1C#Cc1ccccc1)NC(=O)CC(c1cccc(C#N)c1)=N2` registered a melting point greater than 250 °C.

As for `NC(=O)c1ncccc1OCCNCc1ccccc1`, the melting point lay within 110 to 112 °C.

Molecule `O=Cc1c[nH]c2c1ccc1c3cc(-c4ccc(C(F)(F)F)cc4)ccc3[nH]c12` displayed a melting point greater than 250 °C.

With `Cc1nc(N2CCCCC2)ccc1N1CCCn2c1nc1c(Cl)ccc(C(OC(F)F)C(F)(F)F)c12` (centres undefined), the melting point was in the range of 164 to 167 °C.

Molecule `COC(=O)c1cc([N+](=O)[O-])ccc1CS(N)(=O)=O` registered a melting point of 167 to 170 °C.

Turning to `COc1cc2c(cc1Br)CC(C)NN=C2c1ccc([N+](=O)[O-])cc1` (centres undefined), the melting point fell in the range of 172 to 174 °C.

`OCCNc1ncc(CN2CCN(c3ccccc3)CC2)c2nc(-c3ccco3)nn12` came in with a melting point of 169 °C.

Consider `Cc1ccc(-n2c(-c3c4ccccc4cc4ccccc34)ccc2-c2c3ccccc3cc3ccccc23)cc1`, for which the melting point lay within 262 to 263 °C.

Take `Cc1cn(N)c(=O)n1C`: the melting point is 115 to 119 °C.

In the case of `CCCc1nc2cccc(C(=O)OC)c2n1Cc1ccc(-c2ccccc2C(=N)NOC(C)=O)cc1`, the melting point is 177 to 178 °C.

The molecule `O=C(NN=Cc1ccccc1O)c1cc2ccccc2cc1O` yielded a melting point greater than 285 °C.

For `[N-]=[N+]=N[C@]1(C(=O)O)[C@H]2[C@@H](C[C@H]1O)[C@@H]2C(=O)O`, the melting point was in the range of 124 to 128 °C.

Turning to `CCc1oc(-c2ccc(C(F)(F)F)cc2)cc1CCC(=O)Nc1cccc(CSCC(=O)O)c1`, the melting point fell in the range of 139 to 141 °C.

For `Cn1cc(Cc2cc3cccc(-c4cccc(C(=O)NCCO)c4)c3s2)cc(Cl)c1=O`, the melting point was in the range of 210 to 211 °C.

`Cn1c(-c2ccccc2)cc(O)c(C(=N)c2ccccc2)c1=O`: the melting point is 238 to 240 °C.

Take `BrC12CC3CC(CC(C3)C1=C1C3CC4CC(C3)CC1C4)C2`: the melting point is 130 to 132 °C.

In turn, `CN(C)Cc1cccc(NCCCNc2nc(N)nn2C)c1` returned a melting point of 101 to 102 °C.

For `CCCCCOc1cc(C(=O)O)c2c(c1)C(=O)CC2`, the melting point fell in the range of 165 to 166 °C.

`CCn1nc2c(N)nc3ccccc3c2c1CC1(F)CCN(C(=O)NC(C)C)CC1` registered a melting point of 205 to 207 °C.

In turn, `CCCCOc1ccccc1-c1ncc(C(=O)OCC)c(=O)[nH]1` displayed a melting point of 123 to 125 °C.

Regarding `CCOCc1nc(C(C)(C)O)c(C(=O)OCOC(=O)C(C)(C)C)n1Cc1ccc(-c2ccccc2C(=O)O)cc1`, the melting point is 65 °C.

`CCOC(=O)C1CCN(c2nc(COc3ccc(COc4nn(-c5ccccc5)cc4C=O)cc3OC)c(C)s2)CC1` registered a melting point of 126 to 127 °C.

In general, melting point refers to the temperature, or range, at which the solid turns liquid.

The values are drawn from a melting point compilation (Tetko et al.; mined from patent text by program, amines drawn as free bases though some values may be those of a salt).
